In patent publication US10081624B2, “Heterocyclic compound” (Takeda Pharmaceutical Company Limited, priority 2014, dated 2018) one finds inhibition data, which are given here for 21 compounds.

This experiment concerns the target T1, HDAC6 enzyme (Homo sapiens, UniProt Q9UBN7).
T1 construct: prepared by transducing full length HDAC1 and HDAC6 genes into Sf-9 insect cells; GST; purchased SignalChem; host or cells: Sf-9 insect cells
T1 sequence (Q9UBN7 1-1215): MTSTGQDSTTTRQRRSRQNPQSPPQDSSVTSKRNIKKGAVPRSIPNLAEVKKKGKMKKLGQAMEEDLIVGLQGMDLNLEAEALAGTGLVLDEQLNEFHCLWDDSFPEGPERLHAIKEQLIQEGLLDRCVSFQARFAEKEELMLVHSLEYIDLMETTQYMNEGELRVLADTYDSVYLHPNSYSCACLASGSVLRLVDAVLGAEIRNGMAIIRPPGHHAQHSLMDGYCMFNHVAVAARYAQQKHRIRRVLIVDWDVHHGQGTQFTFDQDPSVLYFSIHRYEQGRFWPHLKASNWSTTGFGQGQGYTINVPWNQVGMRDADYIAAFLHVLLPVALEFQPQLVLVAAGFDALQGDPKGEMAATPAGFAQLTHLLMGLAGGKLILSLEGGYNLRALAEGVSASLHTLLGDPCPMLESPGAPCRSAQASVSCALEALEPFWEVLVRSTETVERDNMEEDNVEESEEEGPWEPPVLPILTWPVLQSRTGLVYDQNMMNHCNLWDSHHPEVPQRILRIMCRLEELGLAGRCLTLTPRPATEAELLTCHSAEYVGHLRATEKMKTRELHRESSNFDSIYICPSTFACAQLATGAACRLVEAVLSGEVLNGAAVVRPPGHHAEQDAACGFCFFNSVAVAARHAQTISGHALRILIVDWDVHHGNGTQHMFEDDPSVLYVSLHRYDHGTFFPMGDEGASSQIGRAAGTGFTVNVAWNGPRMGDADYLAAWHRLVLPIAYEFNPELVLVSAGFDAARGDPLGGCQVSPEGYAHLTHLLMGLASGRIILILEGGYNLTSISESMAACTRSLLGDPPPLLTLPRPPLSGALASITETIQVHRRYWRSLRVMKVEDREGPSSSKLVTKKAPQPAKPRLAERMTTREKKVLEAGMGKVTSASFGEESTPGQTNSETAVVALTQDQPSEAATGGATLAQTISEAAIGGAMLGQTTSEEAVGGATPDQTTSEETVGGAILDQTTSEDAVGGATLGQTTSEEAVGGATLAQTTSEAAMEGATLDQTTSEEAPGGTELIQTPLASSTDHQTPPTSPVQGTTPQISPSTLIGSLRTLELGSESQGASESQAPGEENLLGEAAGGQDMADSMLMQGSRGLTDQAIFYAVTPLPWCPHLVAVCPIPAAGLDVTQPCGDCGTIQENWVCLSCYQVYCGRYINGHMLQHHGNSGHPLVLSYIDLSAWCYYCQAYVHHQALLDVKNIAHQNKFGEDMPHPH
The experiment is described as follows: HDAC6 enzyme inhibitory assay (HDAC-Glo I/II Assay kit). The format is biochemical. The settings on record: 1 μM test compound; read-out: HDAC6 inhibitory rate (%) (1 μM). As for the experimental part: HDAC1 enzyme and HDAC6 enzyme each prepared by transducing full length HDAC1 and HDAC6 genes into Sf-9 insect cells and purifying by GST affinity column were purchased from SignalChem. Using these enzymes, HDAC1 and/or HDAC6 enzyme inhibitory activities of the compound of the present invention were evaluated. Enzymes were used after preserved at −70° C. HDAC1 or HDAC6 enzyme inhibitory activity of the compound of the present invention was measured using HDAC-Glo™ I/II Assay kit (Promega) according to the following experimental method. The test compound diluted with assay buffer (24 mM Tris-HCl (pH 7.5), 1 mM MgCl2, 0.35 mM KCl, 135 mM NaCl, 0.6 mM Glutathione, 0.01% Tween-20) was added to a 384-well plate by each 2 μL. Then, HDAC1 or HDAC6 enzyme solution diluted with assay buffer was added thereto by each 4 μL, and the plate was incubated at room temperature for 60 min. After incubated, HDAC substrate-Developer solution prepared according to Promega protocol attached to the assay kit was added to the 384-well plate by each 2 μL, and the enzyme reaction was started. After reacting at room temperature for 20 min, luminescence level was measured using plate reader Envision (PerkinElmer). The inhibitory activity of each compound was calculated as a relative activity value when luminescence level in wells without enzyme is considered as 100% inhibition.

On to `O=C(NC[C@@H]1COCCN1C(=O)C1CCOC1)c1ccc(-c2noc(C(F)(F)F)n2)cc1` (stereo partly drawn) [Example 151, N-(((3R)-4-(tetrahydrofuran-3-ylcarbonyl)morpholin-3-yl)methyl)-4-(5-(trifluoromethyl)-1,2,4-oxadiazol-3-yl)benzamide], for which the inhibition at 1 µM was found to be 90%.

As to `Cn1nccc1C(=O)N1CCOC[C@H]1CNC(=O)c1ccc(-c2noc(C(F)(F)F)n2)cc1` [Example 154, N-(((3R)-4-((1-methyl-1H-pyrazol-5-yl)carbonyl)morpholin-3-yl)methyl)-4-(5-(trifluoromethyl)-1,2,4-oxadiazol-3-yl)benzamide], the inhibition at 1 µM worked out at 89%.

Turning to `N#Cc1cc(F)cc(C(=O)N2CCOC[C@H]2CNC(=O)c2ccc(-c3noc(C(F)(F)F)n3)cc2)c1` [Example 156, N-(((3R)-4-(3-cyano-5-fluorobenzoyl)morpholin-3-yl)methyl)-4-(5-(trifluoromethyl)-1,2,4-oxadiazol-3-yl)benzamide], the inhibition at 1 µM is 95%.

As to `O=C(NCC1Cc2ccccc2N1C(=O)C1CC1)c1ccc(-c2noc(C(F)(F)F)n2)cc1` (stereo not drawn) [Example 166, N-((1-(cyclopropylcarbonyl)-2,3-dihydro-1H-indol-2-yl)methyl)-4-(5-(trifluoromethyl)-1,2,4-oxadiazol-3-yl)benzamide], the inhibition at 1 µM came out at 98%.

In the case of `O=C(NCC1Cc2ccccc2N1C(=O)c1cc(Cl)cc(Cl)c1)c1ccc(-c2noc(C(F)(F)F)n2)cc1` (stereo not drawn) [Example 168, N-((1-(3,5-dichlorobenzoyl)-2,3-dihydro-1H-indol-2-yl)methyl)-4-(5-(trifluoromethyl)-1,2,4-oxadiazol-3-yl)benzamide], the inhibition at 1 µM amounted to 70%.

For `O=C(NCC1c2ccccc2CN1C(=O)C1CC1)c1ccc(-c2noc(C(F)(F)F)n2)cc1` (stereo not drawn) [Example 169, N-((2-(cyclopropylcarbonyl)-2,3-dihydro-1H-isoindol-1-yl)methyl)-4-(5-(trifluoromethyl)-1,2,4-oxadiazol-3-yl)benzamide], the inhibition at 1 µM was 84%.

For the compound `O=C(NCC1c2ccccc2CN1C(=O)c1ccccc1)c1ccc(-c2noc(C(F)(F)F)n2)cc1` (stereo not drawn) [Example 170, N-((2-benzoyl-2,3-dihydro-1H-isoindol-1-yl)methyl)-4-(5-(trifluoromethyl)-1,2,4-oxadiazol-3-yl)benzamide], the inhibition at 1 µM stood at 80%.

As to `O=C(NCC1c2ccccc2CN1C(=O)c1cc(Cl)cc(Cl)c1)c1ccc(-c2noc(C(F)(F)F)n2)cc1` (stereo not drawn) [Example 171, N-((2-(3,5-dichlorobenzoyl)-2,3-dihydro-1H-isoindol-1-yl)methyl)-4-(5-(trifluoromethyl)-1,2,4-oxadiazol-3-yl)benzamide], the inhibition at 1 µM is 66%.

For the compound `O=C(NCC1Cc2ccccc2CN1C(=O)C1CC1)c1ccc(-c2noc(C(F)(F)F)n2)cc1` (stereo not drawn) [Example 174, N-((2-(cyclopropylcarbonyl)-1,2,3,4-tetrahydroisoquinolin-3-yl)methyl)-4-(5-(trifluoromethyl)-1,2,4-oxadiazol-3-yl)benzamide], the inhibition at 1 µM was 94%.

Consider `O=C(NCC1Cc2ccccc2CN1C(=O)c1cc(Cl)cc(Cl)c1)c1ccc(-c2noc(C(F)(F)F)n2)cc1` (stereo not drawn) [Example 176, N-((2-(3,5-dichlorobenzoyl)-1,2,3,4-tetrahydroisoquinolin-3-yl)methyl)-4-(5-(trifluoromethyl)-1,2,4-oxadiazol-3-yl)benzamide], for which the inhibition at 1 µM was determined as 82%.

As to `O=C(NCC1COCCN1C(=O)c1ccccc1)c1ccc(-c2noc(C(F)(F)F)n2)nc1` (stereo not drawn) [Example 180, N-((4-benzoylmorpholin-3-yl)methyl)-6-(5-(trifluoromethyl)-1,2,4-oxadiazol-3-yl)nicotinamide], the inhibition at 1 µM was 91%.

`O=C(NC[C@H]1COCCN1C(=O)c1cccc(F)c1)c1ccc(-c2noc(C(F)(F)F)n2)cn1` [Example 185, N-(((3S)-4-(3-fluorobenzoyl)morpholin-3-yl)methyl)-5-(5-(trifluoromethyl)-1,2,4-oxadiazol-3-yl)pyridine-2-carboxamide]: the inhibition at 1 µM worked out at 97%.

As to `O=C(NC[C@H]1COCCN1C(=O)c1cc(F)cc(F)c1)c1ccc(-c2noc(C(F)(F)F)n2)cn1` [Example 186, N-(((3S)-4-(3,5-difluorobenzoyl)morpholin-3-yl)methyl)-5-(5-(trifluoromethyl)-1,2,4-oxadiazol-3-yl)pyridine-2-carboxamide], the inhibition at 1 µM was found to be 99%.

Take `N#Cc1ccccc1C(=O)N1CCOC[C@@H]1CNC(=O)c1ccc(-c2noc(C(F)(F)F)n2)cn1` [Example 187, N-(((3S)-4-(2-cyanobenzoyl)morpholin-3-yl)methyl)-5-(5-(trifluoromethyl)-1,2,4-oxadiazol-3-yl)pyridine-2-carboxamide]: the inhibition at 1 µM stood at 94%.

As to `N#Cc1cccc(C(=O)N2CCOC[C@@H]2CNC(=O)c2ccc(-c3noc(C(F)(F)F)n3)cn2)c1` [Example 188, N-(((3S)-4-(3-cyanobenzoyl)morpholin-3-yl)methyl)-5-(5-(trifluoromethyl)-1,2,4-oxadiazol-3-yl)pyridine-2-carboxamide], the inhibition at 1 µM was found to be 95%.

On to `N#Cc1cc(F)cc(C(=O)N2CCOC[C@@H]2CNC(=O)c2ccc(-c3noc(C(F)(F)F)n3)cn2)c1` [Example 189, N-(((3S)-4-(3-cyano-5-fluorobenzoyl)morpholin-3-yl)methyl)-5-(5-(trifluoromethyl)-1,2,4-oxadiazol-3-yl)pyridine-2-carboxamide], for which the inhibition at 1 µM worked out at 95%.

Consider `N#Cc1ccc(C(=O)N2CCOC[C@@H]2CNC(=O)c2ccc(-c3noc(C(F)(F)F)n3)cn2)cc1` [Example 190, N-(((3S)-4-(4-cyanobenzoyl)morpholin-3-yl)methyl)-5-(5-(trifluoromethyl)-1,2,4-oxadiazol-3-yl)pyridine-2-carboxamide], for which the inhibition at 1 µM was determined as 95%.

Turning to `O=C(NC[C@H]1COCCN1C(=O)c1ccncc1)c1ccc(-c2noc(C(F)(F)F)n2)cn1` [Example 191, N-(((3S)-4-isonicotinoylmorpholin-3-yl)methyl)-5-(5-(trifluoromethyl)-1,2,4-oxadiazol-3-yl)pyridine-2-carboxamide], the inhibition at 1 µM was determined as 96%.

Regarding `Cn1nccc1C(=O)N1CCOC[C@@H]1CNC(=O)c1ccc(-c2noc(C(F)(F)F)n2)cn1` [Example 192, N-(((3S)-4-((1-methyl-1H-pyrazol-5-yl)carbonyl)morpholin-3-yl)methyl)-5-(5-(trifluoromethyl)-1,2,4-oxadiazol-3-yl)pyridine-2-carboxamide], the inhibition at 1 µM worked out at 94%.

For the compound `Cc1ncsc1C(=O)N1CCOC[C@@H]1CNC(=O)c1ccc(-c2noc(C(F)(F)F)n2)cn1` [Example 196, N-(((3S)-4-((4-methyl-1,3-thiazol-5-yl)carbonyl)morpholin-3-yl)methyl)-5-(5-(trifluoromethyl)-1,2,4-oxadiazol-3-yl)pyridine-2-carboxamide], the inhibition at 1 µM amounted to 96%.

`O=C(NC[C@H]1COCCN1C(=O)c1cccs1)c1ccc(-c2noc(C(F)(F)F)n2)cn1` [Example 197, N-(((3S)-4-(2-thienylcarbonyl)morpholin-3-yl)methyl)-5-(5-(trifluoromethyl)-1,2,4-oxadiazol-3-yl)pyridine-2-carboxamide]: the inhibition at 1 µM worked out at 97%.
